{"source": "ChEMBL document CHEMBL1250533", "about": "“QSAR-based solubility model for drug-like compounds” (Bioorg Med Chem, 2010)", "data": [{"experiment": "(§1) Intrinsic solubility of the compound in water", "conditions": "buffer", "values": [{"compound": "CCN(CC)CCNC(=O)c1ccc(N)cc1", "note": "[PROCAINAMIDE]", "solubility": "Soluble"}, {"compound": "Cc1ccc(Cl)c(Nc2ccccc2C(=O)O)c1Cl", "note": "[MECLOFENAMIC ACID]", "solubility": "0.16 µg/mL"}, {"compound": "O=c1[nH]cc(F)c(=O)[nH]1", "note": "[FLUOROURACIL]", "solubility": "Soluble"}, {"compound": "CNC(=C[N+](=O)[O-])NCCSCc1ccc(CN(C)C)o1", "note": "[RANITIDINE]", "solubility": "990 µg/mL"}, {"compound": "COc1ccccc1OCCNCC(O)COc1cccc2[nH]c3ccccc3c12", "note": "(centres undefined) [CARVEDILOL]", "solubility": "22.6 µg/mL"}, {"compound": "CNCCCC12CCC(c3ccccc31)c1ccccc12", "note": "[MAPROTILINE]", "solubility": "5.6 µg/mL"}, {"compound": "CN[C@H]1CC[C@@H](c2ccc(Cl)c(Cl)c2)c2ccccc21", "note": "[SERTRALINE]", "solubility": "4.5 µg/mL"}, {"compound": "C[C@@H]1CN(c2c(F)c(F)c3c(=O)c(C(=O)O)cn(C4CC4)c3c2F)C[C@H](C)N1", "note": "[ORBIFLOXACIN]", "solubility": "Soluble"}, {"compound": "CC1CCc2cc(F)cc3c(=O)c(C(=O)O)cn1c23", "note": "(centres undefined) [FLUMEQUINE]", "solubility": "48 µg/mL"}, {"compound": "O=C(O)c1ccccc1O", "note": "[SALICYLIC ACID]", "solubility": "1620 µg/mL"}, {"compound": "CNCCC=C1c2ccccc2CCc2ccccc21", "note": "[NORTRIPTYLINE]", "solubility": "25 µg/mL"}, {"compound": "NC(N)=Nc1nc(CSCCC(N)=NS(N)(=O)=O)cs1", "note": "[FAMOTIDINE]", "solubility": "760 µg/mL"}, {"compound": "Cc1cccc(CN2CCN(C(c3ccccc3)c3ccc(Cl)cc3)CC2)c1", "note": "(centres undefined) [MECLIZINE]", "solubility": "0.13 µg/mL"}, {"compound": "O=C(O)c1ccccc1C(=O)O", "note": "[PHTHALIC ACID]", "solubility": "4130 µg/mL"}, {"compound": "O=C1CN(/N=C/c2ccc([N+](=O)[O-])o2)C(=O)N1", "note": "[NITROFURANTOIN]", "solubility": "137 µg/mL"}, {"compound": "Cn1cnc([N+](=O)[O-])c1Sc1ncnc2nc[nH]c12", "note": "[AZATHIOPRINE]", "solubility": "172 µg/mL"}, {"compound": "CN(C)CCCN1c2ccccc2Sc2ccc(Cl)cc21", "note": "[CHLORPROMAZINE]", "solubility": "2.7 µg/mL"}, {"compound": "CC(C(=O)O)c1cccc(Oc2ccccc2)c1", "note": "(centres undefined) [FENOPROFEN]", "solubility": "48 µg/mL"}, {"compound": "O=C(O)c1cc(/N=N/c2ccc(S(=O)(=O)Nc3ccccn3)cc2)ccc1O", "note": "[SULFASALAZINE]", "solubility": "0.29 µg/mL"}, {"compound": "O=C(O)C(O)c1ccccc1Cl", "note": "(centres undefined)", "solubility": "Soluble"}, {"compound": "CN1CCN(c2c(F)cc3c(=O)c(C(=O)O)cn4c3c2OCN4C)CC1", "note": "[MARBOFLOXACIN]", "solubility": "Soluble"}, {"compound": "CC(=O)CC(c1ccccc1)c1c(O)c2ccccc2oc1=O", "note": "(centres undefined) [WARFARIN]", "solubility": "5.1 µg/mL"}, {"compound": "CN(C)C(=O)C(CCN1CCC(O)(c2ccc(Cl)cc2)CC1)(c1ccccc1)c1ccccc1", "note": "[LOPERAMIDE]", "solubility": "0.04 µg/mL"}]}, {"experiment": "as §1", "conditions": "water", "units": {"solubility": "µg/mL"}, "values": [{"compound": "CC1=NS(=O)(=O)c2cc(Cl)ccc2N1", "note": "[DIAZOXIDE]", "solubility": 100}, {"compound": "NS(=O)(=O)c1cc2c(cc1C(F)(F)F)NCNS2(=O)=O", "note": "[HYDROFLUMETHIAZIDE]", "solubility": 360}, {"compound": "CCCCOc1cc(C(=O)NCCN(CC)CC)c2ccccc2n1", "note": "[DIBUCAINE]", "solubility": 14}, {"compound": "CCn1cc(C(=O)O)c(=O)c2cc(F)c(N3CCNCC3)cc21", "note": "[NORFLOXACIN]", "solubility": 559}, {"compound": "O=C1NC(=O)C(c2ccccc2)(c2ccccc2)N1", "note": "[PHENYTOIN]", "solubility": 35}, {"compound": "CCN(CC)CCOC(=O)c1ccc(N)cc1", "note": "[PROCAINE]", "solubility": 4500}, {"compound": "CCn1cc(C(=O)O)c(=O)c2ccc(C)nc21", "note": "[NALIDIXIC ACID]", "solubility": 57}, {"compound": "CC(C(=O)O)c1ccc2c(c1)[nH]c1ccc(Cl)cc12", "note": "(centres undefined) [CARPROFEN]", "solubility": 5.5}, {"compound": "Nc1ccc(/N=N/c2ccccc2)c(N)n1", "note": "[PHENAZOPYRIDINE]", "solubility": 13.7}, {"compound": "O=c1n(CCCN2CCN(c3cccc(Cl)c3)CC2)nc2ccccn12", "note": "[TRAZODONE]", "solubility": 127}, {"compound": "Clc1ccc(COC(Cn2ccnc2)c2ccc(Cl)cc2Cl)c(Cl)c1", "note": "(centres undefined) [MICONAZOLE]", "solubility": 3.5}, {"compound": "Cc1nnc(NS(=O)(=O)c2ccc(N)cc2)s1", "note": "[SULFAMETHIZOLE]", "solubility": 450}, {"compound": "Oc1ccc(I)cc1", "solubility": 4250}, {"compound": "CCCNC(=O)NS(=O)(=O)c1ccc(Cl)cc1", "note": "[CHLORPROPAMIDE]", "solubility": 156}, {"compound": "Nc1ccc(Br)cc1C(=O)O", "solubility": 182}, {"compound": "CN(C)CCC=C1c2ccccc2CCc2ccccc21", "note": "[AMITRIPTYLINE]", "solubility": 7.8}, {"compound": "CN1CCN(c2cc3c(cc2F)c(=O)c(C(=O)O)cn3-c2ccc(F)cc2)CC1", "note": "[DIFLOXACIN]", "solubility": 100}, {"compound": "CCOC(=O)c1ccc(N)cc1", "note": "[BENZOCAINE]", "solubility": 780}, {"compound": "CC(C)NCC(O)COc1cccc2[nH]ccc12", "note": "(centres undefined) [PINDOLOL]", "solubility": 40}, {"compound": "CCN1CCN(c2cc3c(cc2F)c(=O)c(C(=O)O)cn3C2CC2)CC1", "note": "[ENROFLOXACIN]", "solubility": 237}, {"compound": "COc1ccc(Cc2nccc3cc(OC)c(OC)cc23)cc1OC", "note": "[PAPAVERINE]", "solubility": 46}, {"compound": "OCCN(CCO)c1nc(N2CCCCC2)c2nc(N(CCO)CCO)nc(N3CCCCC3)c2n1", "note": "[DIPYRIDAMOLE]", "solubility": 3.46}, {"compound": "CN1C(C(=O)Nc2ccccn2)=C(O)c2ccccc2S1(=O)=O", "note": "[PIROXICAM]", "solubility": 5.2}, {"compound": "CNCCCN1c2ccccc2CCc2ccccc21", "note": "[DESIPRAMINE]", "solubility": 63}, {"compound": "O=C(O)c1cc(-c2ccc(F)cc2F)ccc1O", "note": "[DIFLUNISAL]", "solubility": 0.29}, {"compound": "CCCC(=O)Nc1ccc(OCC(O)CNC(C)C)c(C(C)=O)c1", "note": "(centres undefined) [ACEBUTOLOL]", "solubility": 711}, {"compound": "CN1CCN(C2=Nc3cc(Cl)ccc3Nc3ccccc32)CC1", "note": "[CLOZAPINE]", "solubility": 189}, {"compound": "C[C@@H]1CN(c2c(F)c(N)c3c(=O)c(C(=O)O)cn(C4CC4)c3c2F)C[C@H](C)N1", "note": "[SPARFLOXACIN]", "solubility": 167}, {"compound": "NC12CC3CC(CC(C3)C1)C2", "note": "[AMANTADINE]", "solubility": 2120}, {"compound": "Cc1cccc(Nc2ccccc2C(=O)O)c1C", "note": "[MEFENAMIC ACID]", "solubility": 0.04}, {"compound": "CN(C)CCCN1c2ccccc2CCc2ccccc21", "note": "[IMIPRAMINE]", "solubility": 22}, {"compound": "CC(CN(C)C)CN1c2ccccc2CCc2ccccc21", "note": "(centres undefined) [TRIMIPRAMINE]", "solubility": 4.8}, {"compound": "c1ccc(Cn2ccnc2)cc1", "note": "[BENZYLIMIDAZOLE]", "solubility": 874}, {"compound": "CC(C(=O)O)c1ccc(-c2ccccc2)c(F)c1", "note": "(centres undefined) [FLURBIPROFEN]", "solubility": 17.2}, {"compound": "CCCCNc1ccc(C(=O)OCCN(C)C)cc1", "note": "[TETRACAINE]", "solubility": 258}, {"compound": "Nc1nc2nc[nH]c2c(=O)[nH]1", "note": "[GUANINE]", "solubility": 5.6}, {"compound": "C=CCN1CC[C@]23c4c5ccc(O)c4O[C@H]2C(=O)CC[C@@]3(O)[C@H]1C5", "note": "[NALOXONE]", "solubility": 414}, {"compound": "CCCN(CCC)S(=O)(=O)c1ccc(C(=O)O)cc1", "note": "[PROBENECID]", "solubility": 3.9}, {"compound": "NS(=O)(=O)c1cc2c(cc1Cl)N=C(CSCc1ccccc1)NS2(=O)=O", "note": "[BENZTHIAZIDE]", "solubility": 6.4}, {"compound": "O=C(O)c1cn(-c2ccc(F)cc2)c2cc(N3CCNCC3)c(F)cc2c1=O", "note": "[SARAFLOXACIN]", "solubility": 280}, {"compound": "CCn1cc(C(=O)O)c(=O)c2cc(F)c(N3CCNC(C)C3)c(F)c21", "note": "(centres undefined) [LOMEFLOXACIN]", "solubility": 1630}, {"compound": "O=C(O)c1cc(Br)c(O)cc1O", "solubility": 559}, {"compound": "NCCc1c[nH]c2ccccc12", "note": "[TRYPTAMINE]", "solubility": 80}, {"compound": "c1ccc2[nH]c(-c3cscn3)nc2c1", "note": "[THIABENDAZOLE]", "solubility": 66}, {"compound": "CC(=O)OCC1=C(C(=O)O)N2C(=O)[C@@H](NC(=O)Cc3cccs3)[C@H]2SC1", "note": "[CEPHALOTHIN]", "solubility": 457}, {"compound": "CCCCNC(=O)NS(=O)(=O)c1ccc(C)cc1", "note": "[TOLBUTAMIDE]", "solubility": 93}, {"compound": "CCc1nc(N)nc(N)c1-c1ccc(Cl)cc1", "note": "[PYRIMETHAMINE]", "solubility": 19.4}, {"compound": "C=CCc1ccccc1OCC(O)CNC(C)C", "note": "(centres undefined) [ALPRENOLOL]", "solubility": 580}, {"compound": "O=C(O)c1ccc(O)cc1", "note": "[PARABEN]", "solubility": 4740}, {"compound": "C#CCN(C)[C@H](C)Cc1ccccc1", "note": "[SELEGILINE]", "solubility": 575}, {"compound": "Cc1ccc(C(=O)c2ccc(CC(=O)O)n2C)cc1", "note": "[TOLMETIN]", "solubility": 21}]}]}
